What was measured:
[1] = test system: carrageenan-induced inflammatory paw swelling; settings: rats; cited from earlier work
CA1 hippocampal neurons = settings: intraperitoneally, especially prior to cerebral ischemia or during recanalization; cited from earlier work
cheek pouch of a hamster = settings: cited from earlier work
neurons = assay: MAP-2 staining of brain specimens after brain ischemia; type: in vivo, rat; settings: 6 mg/kg melatonin for 10 days, versus non-melatonin group
blood-brain barrier = assay: IgG diapedesis area from blood vessel after brain ischemia (anti-IgG staining, NIH imaging); type: in vivo, rat; settings: average ± SE; 6 mg/kg melatonin into stomach for 10 days from 24 hours after recanalization; 11 rats
Text: Eight to ten-week-old Wister male rats having the body weight of 250 to 300 g were used. Under halothane anesthesia, a 24 G plug was inserted from a right external carotid artery of each rat so as to arrive to an origin of its middle cerebral artery of Willis's circle through its internal carotid artery. Immediately the anesthesia was stopped and the rat was dehypnotized. After one hour, the plug was taken out under halothane anesthesia, thereby a blood flow was recanalized. Ischemic rats in Example 1 were divided into two groups. In the first group (non-melatonin administration group), a physiological saline solution was injected to a stomach of each rat using a sound for 10 days from the first day (24 hours after the recanalization of the blood flow). In the second group (melatonin administration group), a melatonin-containing physiological saline solution was similarly administered in an amount of 6 mg of melatonin per kg of rat.

astrocytes [2] = assay: Injury of incubated astrocytes by serum-free medium, MTT assay; type: cell-based, rat; settings: average ± SE, serum-free DMEM + 10 μg/ml melatonin, after 10 days
Description: (§1) Isolation and incubation of astrocytes were conducted according to the method as described in Neuroscience, 87: […], 1998. Thus, cerebral cortex of a fetal rat was removed, from which astrocytes were separated with trypsin treatment at 37° C. for 20 minutes and incubated on a 24 well culture dish containing DMEM media+10% FBS under 5% CO2/air atmosphere at 37° C.
(§2) The injury of incubated astrocytes was induced by replacing the medium with a serum-free DMEM medium (serum-free group) or adding 6 mM of a metabolic inhibitor, 3-nitropropionic acid (3-NPA), to the medium (3-NPA group). The serum-free group and the 3-NPA group were divided into two sub-groups, respectively. To one sub-group of each group, 10 μg/ml of melatonin was added to the medium.
(§3) The number of the alive astrocytes was counted according to the neutron red assay after 3 days from the incubation in the 3-NPA group or according to the MTT (3-(4,5-dimethyl-thiozolyl)-2,5-diphenyl-tetrazolium bromide) assay after 10 days from the replacement of the medium. The test of significance was conducted by ANOVA.

[3] = test system: production of NO in brain; settings: after transient ischemia/recirculation; cited from earlier work
[4] = test system: acute pancreatitis (pancreatic edema) induced by cerulein; settings: rats; cited from earlier work
astrocytes [5] = assay: Injury of incubated astrocytes by 3-NPA, neutron red assay; type: cell-based, rat; settings: average ± SE, after 3 days
Description: as §1, §2, §3

[6] = test system: ischemic or histamine-induced paw edema; settings: various antioxidants including melatonin, together with dexamethasone; cited from earlier work
astroglia = assay: GFAP staining of brain specimens after brain ischemia (middle cerebral artery plug, 1 h, recanalization); type: in vivo, rat; settings: 11 days after onset of ischemia, 6 mg/kg melatonin for 10 days, versus non-melatonin group
Text: Eight to ten-week-old Wister male rats having the body weight of 250 to 300 g were used.
Under halothane anesthesia, a 24 G plug was inserted from a right external carotid artery of each rat so as to arrive to an origin of its middle cerebral artery of Willis's circle through its internal carotid artery. Immediately the anesthesia was stopped and the rat was dehypnotized. After one hour, the plug was taken out under halothane anesthesia, thereby a blood flow was recanalized.
After 11 days from an onset of brain ischemia, the brain of each rat was fixed with an aqueous 4% paraformaldehyde solution to prepare a brain specimen. Then, the brain specimen was stained according to the standard ABC method using an anti-GFAP antibody (GFAP staining; astroglia were stained)
Ischemic rats in Example 1 were divided into two groups. In the first group (non-melatonin administration group), a physiological saline solution was injected to a stomach of each rat using a sound for 10 days from the first day (24 hours after the recanalization of the blood flow). In the second group (melatonin administration group), a melatonin-containing physiological saline solution was similarly administered in an amount of 6 mg of melatonin per kg of rat. […]

Row | SMILES | carrageenan-induced inflammatory paw swelling [1] | protection of CA1 hippocampal neurons from ischemic injury (CA1 hippocampal neurons) | edema caused by ischemia-reperfusion of microcirculation (cheek pouch of a hamster; hamster cheek pouch) | increase of permeability of capillaries caused by free radicals (cheek pouch of a hamster; topical exposure to hypoxanthine-xanthine oxidase) | number of the alive neurons (neurons) | IgG diapedesis area, cerebral cortex (blood-brain barrier) [mm^2] | IgG diapedesis area, corpus striatum (blood-brain barrier) [mm^2] | number of astrocytes (astrocytes [2]) | production of NO in brain [3] | acute pancreatitis (pancreatic edema) induced by cerulein [4] | number of astrocytes (astrocytes [5]; 6 mM 3-NPA + 10 μg/ml melatonin, neutral red assay) | suppression by dexamethasone of ischemic or histamine-induced paw edema [6] | falling out of astroglia in ischemic core area and gliosis in penumbra area (astroglia) | number of astrocytes (astrocytes [5]; 6 mM 3-NPA alone)
1 | COc1ccc2[nH]cc(CCNC(C)=O)c2c1 [melatonin, N-[2-(5-methoxy-1H-indol-3-yl)ethyl]acetamide] | suppresses | protects | reduces edema | reduces the increase of permeability | higher | 5.5 ± 4.5 | 7.2 ± 4.0 | 48 ± 4 % of control | inhibits | reduces an acute pancreatitis | 63 ± 4 % of control | enhance or prolong | reduced | –
2 | O=C(O)CC[N+](=O)[O-] [3-NPA, 3-nitropropionic acid] | – | – | – | – | – | – | – | – | – | – | – | – | – | 50 ± 5 % of control
